Results taken from patent US10189839B2, “Tricyclic imidazole compounds as inhibitors of tryptophan hydroxylase” (ACTELION PHARMACEUTICALS LTD, priority 2013, dated 2019).

Legend:
5HT [1] = details: mice; cited from earlier work
5HT [2] = details: 200 mg/kg i.p. qid for 3 days; cited from earlier work
cholangiocarcinoma = details: xenograft model of cholangiocarcinoma; cited from earlier work
[3] = system: blood 5HT and urinary 5HIAA; details: phase IIA study, qid; cited from earlier work
5HT [4] = details: in vivo; cited from earlier work
full length human TPH1 = target: T1, full length human TPH1 (Homo sapiens, UniProt P17752); assay: Biochemical in vitro assay using fluorescence readout (TPH1 enzyme activity); details: Table 1, mean where determined several times
T1 construct: To generate the enzyme, full length human TPH1 is cloned into the plasmid pET20b(+); made in house; host or cells: E. coli
T1 sequence (P17752 1-444): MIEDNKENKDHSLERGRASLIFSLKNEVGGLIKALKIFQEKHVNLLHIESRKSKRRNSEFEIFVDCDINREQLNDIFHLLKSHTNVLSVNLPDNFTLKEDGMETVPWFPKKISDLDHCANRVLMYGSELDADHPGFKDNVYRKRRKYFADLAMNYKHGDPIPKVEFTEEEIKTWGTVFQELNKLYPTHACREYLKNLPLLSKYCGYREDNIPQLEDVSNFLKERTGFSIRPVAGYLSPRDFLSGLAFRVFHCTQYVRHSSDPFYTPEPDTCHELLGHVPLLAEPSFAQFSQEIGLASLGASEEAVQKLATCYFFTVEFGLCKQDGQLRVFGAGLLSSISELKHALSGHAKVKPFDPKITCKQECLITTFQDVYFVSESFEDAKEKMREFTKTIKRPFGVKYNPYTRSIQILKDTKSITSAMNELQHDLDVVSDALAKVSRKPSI
Method in brief: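 IC50 (mean of repeats) derived from 5-hydroxy-L-tryptophan fluorescence at 540 nm (300 nm excitation) relative to vehicle, after perchloric acid stop. Reaction: 60 min, 15° C., pH 7.6 Tris-HCl, 40 μM L-tryptophan, 100 μM 6-methyltetrahydropterine, DTT, catalase, with 40-80 nM purified full-length human TPH1 from E. coli.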

| SMILES | IC50 (full length human TPH1) [nM] | other results |
| --- | --- | --- |
| Nc1nc(OC(c2ccc(-c3cccc(F)c3)cc2)C(F)(F)F)cc(-c2ccc(C[C@H](N)C(=O)O)cc2)n1 (stereo partly drawn) [LP533401] |  | brain 5HT concentrations (5HT [1]): without effecting brain concentrations; gut 5HT (5HT [1]): lower gut 5HT |
| N[C@@H](Cc1ccc(Cl)cc1)C(=O)O (racemic) [PCA, p-chlorophenylalanine] |  | 5HT in the brain (5HT [2]): ~20 % original; 5HT in the gut (5HT [2]): ~50 % original; tumor volume (cholangiocarcinoma): dramatic reduction in tumor volume |
| COc1cccc(-c2ccc([C@@H](Oc3cc(-c4ccc(C[C@H](N)C(=O)O)cc4)nc(N)n3)C(F)(F)F)cc2)c1 [LX1031, (S)-2-Amino-3-(4-{2-amino-6-[(R)-2,2,2-trifluoro-1-(3′-methoxy-biphenyl-4-yl)-ethoxy]-pyrimidin-4-yl}-phenyl)-propionic acid] |  | blood 5HT [3]: did not affect blood 5HT; urinary 5HIAA reduction [3]: up to 30%; 5HT in the colon (5HT [4]): only a minor reduction observed in the colon; 5HT in the jejunum (5HT [4]): lowers 5HT in the jejunum; brain 5HT (5HT [4]): no effect on brain 5HT |
| CC(=O)N1CCn2c(nc3c2C(c2sc(C(=O)N(C)C)cc2F)N(C(=O)COc2ccc(C(=O)N(C)C)nc2Cl)CC3)C1 (stereo not drawn) [Example 5.7.1, 5-(2-(7-acetyl-1-(5-(dimethylcarbamoyl)-3-fluorothiophen-2-yl)-3,4,6,7,8,9-hexahydropyrido[4′,3′:4,5]imidazo[1,2-a]pyrazin-2(1H)-yl)-2-oxoethoxy)-6-chloro-N,N-dimethylpicolinamide] | 27 |  |
| CCc1nc(NS(C)(=O)=O)ccc1OCC(=O)N1CCc2nc3n(c2C1c1cc(F)c(C)cc1F)CCS3 (stereo not drawn) [Example 4.7.1, N-(5-(2-(5-(2,5-difluoro-4-methylphenyl)-2,3,7,8-tetrahydrothiazolo[2′,3′:2,3]imidazo[4,5-c]pyridin-6(5H)-yl)-2-oxoethoxy)-6-ethylpyridin-2-yl)methanesulfonamide] | 6 |  |
| Cc1cnc(C2c3c(nc4n3CCCC4)CCN2C(=O)COc2ccc(-c3ncco3)nc2Cl)c(F)c1 (stereo not drawn) [Example 1.6.2, 2-((2-chloro-6-(oxazol-2-yl)pyridin-3-yl)oxy)-1-(1-(3-fluoro-5-methylpyridin-2-yl)-3,4,6,7,8,9-hexahydroimidazo[1,2-a:5,4-c′]dipyridin-2(1H)-yl)ethanone] | 41 |  |
| CCc1nc(C(=O)NC2CC2)ccc1OCC(=O)N1CCc2nc3n(c2[C@@H]1c1ncc(C2CC2)cc1F)CCCC3 [Example 1.3.3, (R)-N-cyclopropyl-5-(2-(1-(5-cyclopropyl-3-fluoropyridin-2-yl)-3,4,6,7,8,9-hexahydroimidazo[1,2-a:5,4-c′]dipyridin-2(1H)-yl)-2-oxoethoxy)-6-ethylpicolinamide] | 7 |  |
| CN(c1ccc(OCC(=O)N2CCc3nc4n(c3C2c2ccc(Cl)cc2F)CCS4)c(Cl)n1)S(C)(=O)=O (stereo not drawn) [Example 4.1.4, N-(6-chloro-5-(2-(5-(4-chloro-2-fluorophenyl)-2,3,7,8-tetrahydrothiazolo[2′,3′:2,3]imidazo[4,5-c]pyridin-6(5H)-yl)-2-oxoethoxy)pyridin-2-yl)-N-methylmethanesulfonamide] | 16 |  |
| CN(CC(F)(F)F)c1ccc(OCC(=O)N2CCc3nc4n(c3C2c2ccc(Cl)cc2F)CCCC4)c(Cl)n1 (stereo not drawn) [Example 1.1.23, 1-(1-(4-chloro-2-fluorophenyl)-3,4,6,7,8,9-hexahydroimidazo[1,2-a:5,4-c′]dipyridin-2(1H)-yl)-2-((2-chloro-6-(methyl(2,2,2-trifluoroethyl)amino)pyridin-3-yl)oxy)ethan-1-one] | 9 |  |
| Cc1cc(F)cnc1C1c2c(nc3n2CCCC3)CCN1C(=O)COc1ccc(NS(C)(=O)=O)nc1Cl (stereo not drawn) [Example 1.19.1, N-(6-chloro-5-(2-(1-(5-fluoro-3-methylpyridin-2-yl)-3,4,6,7,8,9-hexahydroimidazo[1,2-a:5,4-c′]dipyridin-2(1H)-yl)-2-oxoethoxy)pyridin-2-yl)methanesulfonamide] | 113 |  |
| CCc1nc(C)ccc1OCC(=O)N1CCc2nc3n(c2C1c1ccc(Cl)cc1F)CCS3 (stereo not drawn) [Example 4.1.8, 1-(5-(4-chloro-2-fluorophenyl)-2,3,7,8-tetrahydrothiazolo[2′,3′:2,3]imidazo[4,5-c]pyridin-6(5H)-yl)-2-((2-ethyl-6-methylpyridin-3-yl)oxy)ethanone] | 28 |  |
| CCc1nc(C(=O)NC2CC2)ccc1OCC(=O)N1CCc2nc3n(c2C1c1ccc(Cl)cc1F)CCCC3 (stereo not drawn) [Example 1.1.12, 5-(2-(1-(4-chloro-2-fluorophenyl)-3,4,6,7,8,9-hexahydroimidazo[1,2-a:5,4-c′]dipyridin-2(1H)-yl)-2-oxoethoxy)-N-cyclopropyl-6-ethylpicolinamide] | 9 |  |
| CC(=O)N1CCn2c(nc3c2C(c2ccc(Cl)cc2F)N(C(=O)COc2ccc(C(=O)N(C)C)nc2Cl)CC3)C1 (stereo not drawn) [Example 5.1.3, 5-(2-(7-acetyl-1-(4-chloro-2-fluorophenyl)-3,4,6,7,8,9-hexahydropyrido[4′,3′:4,5]imidazo[1,2-a]pyrazin-2(1H)-yl)-2-oxoethoxy)-6-chloro-N,N-dimethylpicolinamide] | 11 |  |
| O=C(COc1ccc(N2CCCS2(=O)=O)nc1Cl)N1CCc2nc3n(c2C1c1ccc(Cl)cc1F)CCCC3 (stereo not drawn) [Example 1.1.10, 1-(1-(4-chloro-2-fluorophenyl)-3,4,6,7,8,9-hexahydro-imidazo[1,2-a:5,4-c′]dipyridin-2(1H)-yl)-2-((2-chloro-6-(1,1-dioxidoisothiazolidin-2-yl)pyridin-3-yl)oxy)-ethanone] | 17 |  |
| CCc1nc(C)ccc1OCC(=O)N1CCc2nc3n(c2C1c1ccc(C2CC2)cc1F)CCN(CC1CC1)C3 (stereo not drawn) [Example 5.2.6, 1-(1-(4-cyclopropyl-2-fluorophenyl)-7-(cyclopropyl-methyl)-3,4,6,7,8,9-hexahydropyrido[4′,3′:4,5]imida-zo[1,2-a]pyrazin-2(1H)-yl)-2-((2-ethyl-6-methylpyridin-3-yl)oxy)ethanone] | 16 |  |
| CN(C)C(=O)c1ccc(OCC(=O)N2CCc3nc4n(c3C2c2sccc2F)CCS4)c(Cl)n1 (stereo not drawn) [Example 4.6.1, 6-chloro-5-(2-(5-(3-fluorothiophen-2-yl)-2,3,7,8-tetrahydrothiazolo[2′,3′:2,3]imidazo[4,5-c]pyridin-6(5H)-yl)-2-oxoethoxy)-N,N-dimethylpicolinamide] | 28 |  |
| COC(=O)c1ccc([C@@H]2c3c(nc4n3CCCC4)CCN2C(=O)COc2ccc(C(=O)NC3CC3)nc2Cl)c(F)c1 [Example 1.23.2, methyl (R)-4-(2-(2-((2-chloro-6-(cyclopropylcarbamoyl)pyridin-3-yl)oxy)acetyl)-1,2,3,4,6,7,8,9-octahydroimidazo[1,2-a:5,4-c′]dipyridin-1-yl)-3-fluorobenzoate] | 56 |  |
| CCc1nc(N2CCCS2(=O)=O)ccc1OCC(=O)N1CCc2nc3n(c2C1c1cnc(C)s1)CCCC3 (stereo not drawn) [Example 1.15.2, 2-((6-(1,1-dioxidoisothiazolidin-2-yl)-2-ethylpyridin-3-yl)oxy)-1-(1-(2-methylthiazol-5-yl)-3,4,6,7,8,9-hexahydroimidazo[1,2-a:5,4-c′]dipyridin-2(1H)-yl)ethanone] | 27 |  |
| CS(=O)(=O)Nc1ccc(OCC(=O)N2CCc3nc4n(c3C2c2ccc(OCCO)cc2F)CCCC4)c(Cl)n1 (stereo not drawn) [Example 1.28.2, N-(6-chloro-5-(2-(1-(2-fluoro-4-(2-hydroxyethoxy)phenyl)-3,4,6,7,8,9-hexahydroimidazo[1,2-a:5,4-c′]dipyridin-2(1H)-yl)-2-oxoethoxy)pyridin-2-yl)methanesulfonamide] | 21 |  |
| CCc1nc(NS(C)(=O)=O)ccc1OCC(=O)N1CCc2nc3n(c2[C@@H]1c1ccc(Cl)cc1F)CCCC3 [Example 1.1.18, (S)-N-(5-(2-(1-(4-chloro-2-fluorophenyl)-3,4,6,7,8,9-hexahydroimidazo[1,2-a:5,4-c′]dipyridin-2(1H)-yl)-2-oxoethoxy)-6-ethylpyridin-2-yl)methanesulfonamide] | 8 |  |
